{"source": "patent US12653911B2", "about": "“Stimuli-responsive nanoparticles for biomedical applications” (The Brigham and Women's Hospital, Inc., priority 2016, dated 2026)", "data": [{"test": "Acid-base titration of the polymers (pKa)", "assay_type": "physicochemical", "protocol": "(§1) Meo-PEG-b-P(DPA-co-GMA-TEPA-C14) was dispersed in deionized water, and a concentrated HCl aqueous solution was added until complete dissolution of the copolymer (1 mg/mL). Subsequently, 1 M NaOH aqueous solution was added in 1-5 μL increments. After each addition, the solution was constantly stirred for 3 min, and the solution pH was measured using a pH meter.\nas §1, with “Meo-PEG-b-P(DPA-co-GMA-Rn)” for “Meo-PEG-b-P(DPA-co-GMA-TEPA-C14)”, “until” for “until complete dissolution of”, “copolymer was completely dissolved” for “copolymer”\nSubsequently, 1 M NaOH aqueous solution was added in 1-5 μL increments. After each addition, the solution was constantly stirred for 3 min, and the solution pH was measured using a pH meter.", "values": [{"substance": "Meo-PEG113-b-P(DPA80-co-GMA5) [PDPA80-GMA5]", "pKa": 6.24}, {"substance": "Meo-PEG-b-P(DPA-co-GMA) [PDPA40-GMA5]", "pKa": 6.34}, {"substance": "Meo-PEG-b-P(DPA-co-GMA) [PDPA50-GMA5]", "pKa": 6.31}, {"substance": "Meo-PEG-b-P(DPA-co-GMA) [PDPA60-GMA5]", "pKa": 6.29}, {"substance": "Meo-PEG-b-P(DPA-co-GMA) [PDPA70-GMA5]", "pKa": 6.26}, {"substance": "Meo-PEG-b-P(DPA-co-GMA) [PDPA100-GMA5]", "pKa": 6.21}, {"substance": "Meo-PEG-b-P(DPA-co-GMA-R10)", "pKa": 6.31}, {"substance": "Meo-PEG-b-P(DPA-co-GMA-TEPA-C14) [PDPA40]", "pKa of polymer": 6.34}, {"substance": "Meo-PEG-b-P(DPA-co-GMA-TEPA-C14) [PDPA50]", "pKa of polymer": 6.31}, {"substance": "Meo-PEG-b-P(DPA-co-GMA-TEPA-C14) [PDPA60]", "pKa of polymer": 6.29}, {"substance": "Meo-PEG-b-P(DPA-co-GMA-TEPA-C14) [PDPA70]", "pKa of polymer": 6.26}]}]}
